According to patent US12509444B2, “Compounds and methods for CD73 modulation and indications therefor” (Plexxikon Inc., priority 2019, dated 2025):

Tests used:
[1] = target: T1, Human CD73 (amino acid residues 27-549) (Homo sapiens, UniProt P21589); experiment: CD73 enzymatic assay (luciferase-based indirect assay, CellTiter-Glo); format: biochemical; conditions: 0.4 nM CD73, 150 μM AMP, 1 hour at room temperature
T1 construct: Human CD73 (amino acid residues 27-549); His tag (N); made in house; host or cells: E. coli
T1 sequence (P21589 27-549): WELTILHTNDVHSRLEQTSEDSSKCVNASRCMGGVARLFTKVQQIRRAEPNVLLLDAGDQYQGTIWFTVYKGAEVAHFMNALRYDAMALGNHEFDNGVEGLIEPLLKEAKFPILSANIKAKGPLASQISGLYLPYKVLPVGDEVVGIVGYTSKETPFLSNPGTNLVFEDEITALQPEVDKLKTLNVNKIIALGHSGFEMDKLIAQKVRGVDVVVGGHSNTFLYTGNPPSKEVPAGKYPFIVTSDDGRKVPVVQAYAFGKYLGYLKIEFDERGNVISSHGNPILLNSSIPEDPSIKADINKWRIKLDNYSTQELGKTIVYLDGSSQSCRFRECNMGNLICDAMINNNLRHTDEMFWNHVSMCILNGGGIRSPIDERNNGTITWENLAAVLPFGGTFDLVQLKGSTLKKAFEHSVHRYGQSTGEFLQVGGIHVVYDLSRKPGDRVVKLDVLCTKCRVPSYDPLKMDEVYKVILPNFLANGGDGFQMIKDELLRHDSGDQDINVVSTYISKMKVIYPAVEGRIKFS
How it was run: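 Residual AMP inhibits luciferase, so luminescence reports CD73 turnover; read with CellTiter-Glo 2.0 plus 1 μM final ATP, 30 min. Reaction used 0.4 nM N-His CD73 (27-549, E. coli), 150 μM AMP, HEPES pH 7.4 with Tween 20, 1 h at room temperature. IC50 fitted by nonlinear regression.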

human CD73 = target: T2, human CD73 (Homo sapiens, UniProt P21589); experiment: Inhibitor activity against CD73 in cell based assay (CD73 expressing CHO-K1 cells); conditions: CHO-K1 cells expressing human CD73, 150 μM AMP, 4 hours of incubation; read-out: CHO-K1 CELL VARIANT: CD73 IC50
T2 construct: expressed in transfected cells
T2 sequence (P21589 27-549): T1 sequence (P21589 27-549)
Experimental: Determine Inhibitor Activity Against CD73 in Cell Based Assay
CD73 expressing CHO-K1 cell clones were generated upon stable transfection of a plasmid expressing human CD73 under the control of CMV promoter. Cells were selected in Ham's F-12K (Kaighn's) media supplemented with 10% fetal bovine serum and 1 mg/ml G418 at 37° C. in a humidified incubator supplied with 5% CO2. The assays were performed as follows. Cells were seeded in a 96 well plate in 50 μL of culture media at a density of 1×10^4 per well. Compound at a maximal concentration of 5 mM was serially diluted 1:3 in DMSO for a total of 8 point titration. A 2 μL aliquot of each dilution point was added to 248 μL culture media and 25 µL was added to each well, providing 10 μM compound at the maximum concentration point. AMP was diluted in culture media and 25 μL was added to each well with a final concentration of 150 μM. 4 wells containing 0.2% DMSO treated cells and AMP served as high controls and 4 wells containing media only with 0.2% DMSO and AMP served as low controls. After 4 hours of incubation, 20 μL of the supernatant was transferred to a 384 well plate. AMP level in supernatant was measured indirectly by adding 5 μL of CellTiter-Glo® 2.0 reagent and 5 μL of ATP with a final concentration of 1 μM. Following incubation of plate at room temperature for 30 minutes, luminescent signal was read on a Tecan plate reader. The percentage inhibition at individual concentrations relative to high and low controls was calculated. The data were analyzed by using nonlinear regression to generate IC50 values.

| Compound | IC50 [1] [µM] | IC50 (human CD73) [µM] |
| --- | --- | --- |
| O=C(Nc1cccc(Cl)c1)O[C@@H]1CCN(c2cn[nH]c(=O)c2Cl)C1 [P-0101, (R)-1-(5-chloro-6-oxo-1,6-dihydropyridazin-4-yl)pyrrolidin-3-yl (3-chlorophenyl)carbamate] | 0.001 to 10 | 0.001 to 10 |
| CCOC(=O)N1CCC(NC(=O)O[C@@H]2CCN(c3cn[nH]c(=O)c3Cl)C2)CC1 [P-0102, ethyl (R)-4-((((1-(5-chloro-6-oxo-1,6-dihydropyridazin-4-yl)pyrrolidin-3-yl)oxy)carbonyl)amino) piperidine-1-carboxylate] | 0.001 to 10 | 0.001 to 10 |
| O=C(N[C@@H]1CCN(c2cn[nH]c(=O)c2Cl)C1)N[C@@H]1CCN(c2cn[nH]c(=O)c2Cl)C1 [P-0103, 1,3-bis((R)-1-(5-chloro-6-oxo-1,6-dihydropyridazin-4-yl)pyrrolidin-3-yl)urea] | 0.001 to 10 | 10 to 100 |
| O=C(NC1CC(F)(F)C1)O[C@@H]1CCN(c2cn[nH]c(=O)c2Cl)C1 [P-0104, (R)-1-(5-chloro-6-oxo-1,6-dihydropyridazin-4-yl)pyrrolidin-3-yl (3,3-difluorocyclobutyl)carbamate] | 0.001 to 10 | 0.001 to 10 |
| O=C(NC1CCN(C(=O)CO)CC1)O[C@@H]1CCN(c2cn[nH]c(=O)c2Cl)C1 [P-0105, (R)-1-(5-chloro-6-oxo-1,6-dihydropyridazin-4-yl)pyrrolidin-3-yl (1-(2-hydroxyacetyl)piperidin-4-yl)carbamate] | 0.001 to 10 | 0.001 to 10 |
| O=C(NC1CCC(F)(F)CC1)O[C@@H]1CCN(c2cn[nH]c(=O)c2Cl)C1 [P-0106, (R)-1-(5-chloro-6-oxo-1,6-dihydropyridazin-4-yl)pyrrolidin-3-yl (4,4-difluorocyclohexyl)carbamate] | 0.001 to 10 | 0.001 to 10 |
| O=C(N[C@H]1CCOC1)O[C@@H]1CCN(c2cn[nH]c(=O)c2Cl)C1 [P-0107, (R)-1-(5-chloro-6-oxo-1,6-dihydropyridazin-4-yl)pyrrolidin-3-yl ((S)-tetrahydrofuran-3-yl)carbamate] | 0.001 to 10 | 0.001 to 10 |
| O=C(N[C@@H]1CCOC1)O[C@@H]1CCN(c2cn[nH]c(=O)c2Cl)C1 [P-0108, (R)-1-(5-chloro-6-oxo-1,6-dihydropyridazin-4-yl)pyrrolidin-3-yl ((R)-tetrahydrofuran-3-yl)carbamate] | 0.001 to 10 | 0.001 to 10 |
| C[C@H]1CC[C@H](NC(=O)O[C@@H]2CCN(c3cn[nH]c(=O)c3Cl)C2)CC1 [P-0109, (R)-1-(5-chloro-6-oxo-1,6-dihydropyridazin-4-yl)pyrrolidin-3-yl ((1r,4R)-4-methylcyclohexyl)carbamate] | 0.001 to 10 | 0.001 to 10 |
| C[C@H]1CC[C@@H](NC(=O)O[C@@H]2CCN(c3cn[nH]c(=O)c3Cl)C2)CC1 [P-0110, (R)-1-(5-chloro-6-oxo-1,6-dihydropyridazin-4-yl)pyrrolidin-3-yl ((1s,4S)-4-methylcyclohexyl)carbamate] | 0.001 to 10 | 0.001 to 10 |
| O=C(NC1C2CC3CC(C2)CC1C3)O[C@@H]1CCN(c2cn[nH]c(=O)c2Cl)C1 (stereo partly drawn) [P-0111, (R)-1-(5-chloro-6-oxo-1,6-dihydropyridazin-4-yl)pyrrolidin-3-yl adamantan-2-ylcarbamate] | 0.001 to 10 | 0.001 to 10 |
| O=C(NC1CCC(F)(F)C1)O[C@@H]1CCN(c2cn[nH]c(=O)c2Cl)C1 (stereo partly drawn) [P-0112, (R)-1-(5-chloro-6-oxo-1,6-dihydropyridazin-4-yl)pyrrolidin-3-yl (3,3-difluorocyclopentyl)carbamate] | 0.001 to 10 | 0.001 to 10 |
| CC1(NC(=O)O[C@@H]2CCN(c3cn[nH]c(=O)c3Cl)C2)CCOC1 (stereo partly drawn) [P-0113, (R)-1-(5-chloro-6-oxo-1,6-dihydropyridazin-4-yl)pyrrolidin-3-yl (3-methyltetrahydrofuran-3-yl)carbamate] | 0.001 to 10 | 0.001 to 10 |
| N#CC1CCC(NC(=O)O[C@@H]2CCN(c3cn[nH]c(=O)c3Cl)C2)CC1 (stereo partly drawn) [P-0114, (R)-1-(5-chloro-6-oxo-1,6-dihydropyridazin-4-yl)pyrrolidin-3-yl (4-cyanocyclohexyl)carbamate] | 0.001 to 10 | 0.001 to 10 |
